# Assay results reported in patent publication US20220256854A1, “PLANT TREATMENT COMPOSITION” (Croda International Plc, priority 2019, published 2022).
# How the values were obtained:
# Type in all cases: in vivo
# Brachiaria decumbens [1] = assay: Glufosinate absorption in Brachiaria decumbens with Mn formulations (Example 1, Study 1); details: glufosinate 2 l/ha; Mn formulation at 100 g/ha Mn where applied; 36 hours after application
# Method: (§1) Studies were conducted to evaluate the effect of an Mn formulation containing manganese on the absorption of glufosinate (Study 1) and glyphosate (Study 2) using Brachiaria decumbens as a model weed species.
# Study 1. Seed of Brachiaria decumbens were planted into pots in a greenhouse during January 2015. This experiment was designed as a randomized complete block with six replications. Each plant was sprayed in a spray chamber with one of six treatments (Table 1) 19 days after planting.
# The amount of glufosinate on the plant surface (not absorbed) and that penetrated plant tissue (absorbed) was measured 36 hours after application of a treatment using chromatography and spectrometry.
# Cenchrus echinatus [2] = assay: Field trial, glufosinate with Formulation A, weed control (Example 4); details: Formulation A @ 1 l/ha where applied, mean of 7, 14, 28 daa
# Method: (§2) A study was conducted to evaluate the effect of an Mn formulation on glufosinate efficacy, as measured by the control of individual grass and broadleaf weed species.
# (§3) The trial was designed as a randomized complete block with three replications of four treatments (Table 9). The trial was planted at one location in Brazil during March 2016. Weed control was assessed 7, 14, and 28 daa.
# Digitaria horizontalis [3] = assay: as above; details: Formulation A @ 1 l/ha where applied, mean of 7, 14, 28 daa
# Method: as §2, §3
# Brachiaria decumbens [4] = assay: as above; details: Formulation A @ 1 l/ha where applied, mean of 7, 14, 28 daa
# Method: as §2, §3
# Ipomoea acuminate [5] = assay: as above; details: Formulation A @ 1 l/ha where applied, mean of 7, 14, 28 daa
# Method: as §2, §3
# Brachiaria plantaginea [6] = assay: as above; details: Formulation A @ 1 l/ha where applied, mean of 7, 14, 28 daa
# Method: as §2, §3
# [7] = tested on: individual grass and broadleaf weed species; assay: Field trial, glufosinate with Formulation A, weed control, average over five weed species (Example 4); details: Formulation A @ 1 l/ha where applied, average of five weed species
# Method: as §2, §3
# weed species [8] = assay: Field trial, glyphosate with K formulation, weed control (Example 5, Study 3); details: Glyphosate @ 2 l/ha, Formulation @ 5 l/ha where applied
# Method: (§4) Three studies were conducted to evaluate the effect of a K formulation on glyphosate efficacy, as measured by the control of weed species.
# Study 3. The trial was designed as a randomized complete block with two replications of six treatments (Table 15). The trial was planted at one location in Brazil during 2011. Weed control was assessed 14 and 25 daa.
# Brachiaria decumbens [9] = assay: Glyphosate absorption in Brachiaria decumbens with Mn formulations (Example 1, Study 2); details: glyphosate 3.5 l/ha; Mn formulation at 100 g/ha Mn where applied; four days after application
# Method: as §1
# Study 2. Seed of Brachiaria decumbens were planted into pots in a greenhouse during January 2015. This experiment was designed as a randomized complete block with six replications. Each plant was sprayed in a spray chamber with one of six treatments (Table 3) 25 days after planting.
# The amount of glyphosate on the plant surface (not absorbed) and that penetrated plant tissue (absorbed) was measured four days after application (daa) of a treatment using chromatography and spectrometry.
# Grass weeds = assay: Field trial, glyphosate with Mn formulation, control of grass weeds (Example 2); details: glyphosate 1 l/ha; V2 soybean growth stage; 7 daa; six locations in Brazil
# Method: (§5) A study was carried out to evaluate the effect of an Mn formulation on the efficacy of glyphosate, as measured by the control of broadleaf and grass weed species.
# (§6) The trial was designed as a randomized complete block with six replications of five treatments (Table 5). The trial was planted at each of six locations in Brazil during the 2015 season. All treatments were applied at the V2 soybean growth stage using backpack sprayers. Soybeans were sown at a rate consistent with locally recommended practices into plots that were approximately 4 m long and 5 m wide.
# (§7) Data collected from a 1 m^2 area of each plot included the number of broadleaf and grass weeds, by genus and species, at the V2 soybean growth stage immediately prior to treatment application. The number of dead/damaged and undamaged weeds, by genus and species, was collected from the same 1 m^2 area of each plot 7 daa of a treatment. Treatment 2 (glyphosate alone) was used as the control.
# Cenchrus echinatus [10] = assay: Field trial, glyphosate with Formulation A, weed control (Example 3); details: Formulation A @ 1 l/ha where applied, mean of 7, 14, 28 daa
# Method: (§8) A study was conducted to evaluate the effect of an Mn formulation on glyphosate efficacy, as measured by the control of individual grass and broadleaf weed species.
# (§9) The trial was designed as a randomized complete block with three replications of four treatments (Table 7). The trial was planted at one location in Brazil during March 2016. Weed control was assessed 7, 14, and 28 daa.
# Digitaria horizontalis [11] = assay: as above; details: Formulation A @ 1 l/ha where applied, mean of 7, 14, 28 daa
# Method: as §8, §9
# Euphorbia heterophylla = assay: as above; details: Formulation A @ 1 l/ha where applied, mean of 7, 14, 28 daa
# Method: as §8, §9
# Brachiaria decumbens [12] = assay: as above; details: Formulation A @ 1 l/ha where applied, mean of 7, 14, 28 daa
# Method: as §8, §9
# Ipomoea acuminate [13] = assay: as above; details: Formulation A @ 1 l/ha where applied, mean of 7, 14, 28 daa
# Method: as §8, §9
# Brachiaria plantaginea [14] = assay: as above; details: Formulation A @ 1 l/ha where applied, mean of 7, 14, 28 daa
# Method: as §8, §9
# Amaranthus retroflexus = assay: as above; details: Formulation A @ 1 l/ha where applied, mean of 7, 14, 28 daa
# Method: as §8, §9
# Broadleaf weeds = assay: Field trial, glyphosate with Mn formulation, control of broadleaf weeds (Example 2); details: glyphosate 1 l/ha; V2 soybean growth stage; 7 daa; six locations in Brazil
# Method: as §5, §6, §7
# weed species [15] = assay: Field trial, glyphosate with K formulation, weed control (Example 5, Study 1); details: Glyphosate @ 2 l/ha, no formulation
# Method: as §4
# Study 1. The trial was designed as a randomized complete block with two replications of five treatments (Table 11). The trial was planted at one location in Brazil during 2011. Weed control was assessed 14 and 25 daa.
# [16] = tested on: individual grass and broadleaf weed species; assay: Field trial, glyphosate with Formulation A, weed control, average over seven weed species (Example 3); details: Formulation A @ 1 l/ha where applied, average of seven weed species
# Method: as §8, §9
# weed species [17] = assay: Field trial, glyphosate with K formulation, weed control (Example 5, Study 2); details: Glyphosate @ 2 l/ha, Formulation @ 5 l/ha where applied
# Method: as §4
# Study 2. The trial was designed as a randomized complete block with two replications of six treatments (Table 13). The trial was planted at one location in Brazil during 2011. Weed control was assessed 14 and 25 daa.
structure (smiles),measurement,setting,value
"CP(=O)(O)CCC(N)C(=O)O (centres unmarked) [Glufosinate, glufosinate]",Glufosinate Absorbed (%),Brachiaria decumbens [1],24.0%
same,Weed control (%) CCHEC,Cenchrus echinatus [2]; Glufosinate @ 1.5 l/ha,62.8%
same,Weed control (%) CCHEC,Cenchrus echinatus [2]; Glufosinate @ 2.5 l/ha,78.7%
same,Weed control (%) DIGHO,Digitaria horizontalis [3]; Glufosinate @ 1.5 l/ha,67.0%
same,Weed control (%) DIGHO,Digitaria horizontalis [3]; Glufosinate @ 2.5 l/ha,82.9%
same,Weed control (%) BRADC,Brachiaria decumbens [4]; Glufosinate @ 1.5 l/ha,89.3%
same,Weed control (%) BRADC,Brachiaria decumbens [4]; Glufosinate @ 2.5 l/ha,91.1%
same,Weed control (%) IPOAC,Ipomoea acuminate [5]; Glufosinate @ 1.5 l/ha,96.7%
same,Weed control (%) IPOAC,Ipomoea acuminate [5]; Glufosinate @ 2.5 l/ha,100.0%
same,Weed control (%) BRAPL,Brachiaria plantaginea [6]; Glufosinate @ 1.5 l/ha,78.6%
same,Weed control (%) BRAPL,Brachiaria plantaginea [6]; Glufosinate @ 2.5 l/ha,88.2%
same,Weed control (%) Ave,[7]; Glufosinate @ 1.5 l/ha,78.9%
same,Weed control (%) Ave,[7]; Glufosinate @ 2.5 l/ha,88.2%
"O=C(O)CNCP(=O)(O)O [Glyphosate, glyphosate]",Weed control (%) 14 daa,weed species [8]; 14 daa,85%
same,Weed control (%) 25 daa,weed species [8]; 25 daa,90%
same,Glyphosate Absorbed (%),Brachiaria decumbens [9],21.0%
same,Weed control (%) Grass weeds,Grass weeds,97.7%
same,Weed control (%) CCHEC,Cenchrus echinatus [10]; Glyphosate @ 1 l/ha,95.0%
same,Weed control (%) CCHEC,Cenchrus echinatus [10]; Glyphosate @ 2 l/ha,98.7%
same,Weed control (%) DIGHO,Digitaria horizontalis [11]; Glyphosate @ 1 l/ha,96.3%
same,Weed control (%) DIGHO,Digitaria horizontalis [11]; Glyphosate @ 2 l/ha,99.0%
same,Weed control (%) EPHHL,Euphorbia heterophylla; Glyphosate @ 1 l/ha,65.4%
same,Weed control (%) EPHHL,Euphorbia heterophylla; Glyphosate @ 2 l/ha,77.4%
same,Weed control (%) BRADC,Brachiaria decumbens [12]; Glyphosate @ 1 l/ha,83.0%
same,Weed control (%) BRADC,Brachiaria decumbens [12]; Glyphosate @ 2 l/ha,90.2%
same,Weed control (%) IPOA,Ipomoea acuminate [13]; Glyphosate @ 1 l/ha,34.8%
same,Weed control (%) IPOA,Ipomoea acuminate [13]; Glyphosate @ 2 l/ha,52.6%
same,Weed control (%) BRAPL,Brachiaria plantaginea [14]; Glyphosate @ 1 l/ha,91.2%
same,Weed control (%) BRAPL,Brachiaria plantaginea [14]; Glyphosate @ 2 l/ha,95.9%
same,Weed control (%) AMARE,Amaranthus retroflexus; Glyphosate @ 1 l/ha,69.6%
same,Weed control (%) AMARE,Amaranthus retroflexus; Glyphosate @ 2 l/ha,84.7%
same,Weed control (%) Broadleaf weeds,Broadleaf weeds,83.8%
same,Weed control (%) 14 daa,weed species [15]; 14 daa,85%
same,Weed control (%) 25 daa,weed species [15]; 25 daa,96.5%
same,Weed control (%) Ave,[16]; Glyphosate @ 1 l/ha,76.5%
same,Weed control (%) Ave,[16]; Glyphosate @ 2 l/ha,85.5%
same,Weed control (%) 14 daa,weed species [17]; 14 daa,82.5%
same,Weed control (%) 25 daa,weed species [17]; 25 daa,96.5%
